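A five-concentration, 48-hour dose response in 96-well plates underlies each endpoint, interpolated linearly between surrounding concentrations. GI50 marks 50% less growth. TGI denotes the concentration required for complete inhibition of growth.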
Tests used:
Assay in all cases: inhibition of tumour cell growth, NCI panel, 48 h
HL-60(TB) leukemia = tested on: HL-60(TB) leukemia
UACC-62 melanoma = tested on: UACC-62 melanoma
A549 NSCLC = tested on: A549 NSCLC
OVCAR-5 ovarian = tested on: OVCAR-5 ovarian
SF-539 CNS = tested on: SF-539 CNS
MDA-MB-435 = tested on: MDA-MB-435
K-562 leukemia = tested on: K-562 leukemia
MALME-3M melanoma = tested on: MALME-3M melanoma
HOP-62 NSCLC = tested on: HOP-62 NSCLC
A498 renal = tested on: A498 renal

| SMILES | GI50 (HL-60(TB) leukemia) [µM] | TGI (HL-60(TB) leukemia) [µM] | GI50 (UACC-62 melanoma) [µM] | TGI (UACC-62 melanoma) [µM] | GI50 (A549 NSCLC) [µM] | TGI (A549 NSCLC) [µM] | GI50 (OVCAR-5 ovarian) [µM] | TGI (OVCAR-5 ovarian) [µM] | GI50 (SF-539 CNS) [µM] | TGI (SF-539 CNS) [µM] | GI50 (MDA-MB-435) [µM] | TGI (MDA-MB-435) [µM] | GI50 (K-562 leukemia) [µM] | TGI (K-562 leukemia) [µM] | GI50 (MALME-3M melanoma) [µM] | TGI (MALME-3M melanoma) [µM] | GI50 (HOP-62 NSCLC) [µM] | TGI (HOP-62 NSCLC) [µM] | GI50 (A498 renal) [µM] | TGI (A498 renal) [µM] |
| --- | --- | --- | --- | --- | --- | --- | --- | --- | --- | --- | --- | --- | --- | --- | --- | --- | --- | --- | --- | --- |
| CCCCOC1OC(COC(=O)C(C)C)C(OC(=O)C(C)C)C(O)C1OC1OC(C)C(OC(=O)CCC)C(OC(=O)C(C)C)C1O (stereo not drawn) | 18.1 | 42.9 | 12.3 | 24.8 | 13.6 | 26.5 | 12.7 | 25.2 | 20.5 | 34.8 | 14.5 | 27.6 | 3.09 | 14.3 | 19.5 | 35.2 | 14.3 | 27.4 | – | – |
| NC(=O)NC1C(C(=O)O)N(Cc2ccccc2)C(=O)N1Cc1ccccc1 (stereo not drawn) | – | > 100 | – | > 100 | – | > 100 | – | > 100 | – | > 100 | – | – | – | > 100 | – | > 100 | – | > 100 | – | – |
| CC([O-])=C1C(=O)c2ccccc2C1=O.CC([O-])=C1C(=O)c2ccccc2C1=O.CC[O-].CC[O-].[Ti+4] | > 100 | > 100 | > 100 | > 100 | – | – | > 100 | > 100 | > 100 | > 100 | – | – | > 100 | > 100 | > 100 | > 100 | > 100 | > 100 | > 100 | > 100 |
| O=C1CCCCC12CCC/C2=N\O (stereo not drawn) | – | > 100 | – | > 100 | – | > 100 | – | – | – | > 100 | – | – | – | > 100 | – | > 100 | – | > 100 | – | > 100 |
| CC(=O)NC(C=O)C(O[C@H](C)C(=O)NC(C)C(=O)NC(CCC(N)=O)C(=O)OCc1ccccc1)C(O)C(O)COC(=O)CCNc1c2ccccc2nc2cccc([N+](=O)[O-])c12 (stereo partly drawn) | – | 31.8 | – | 10.5 | – | 5.13 | – | 13.2 | – | 20.2 | – | – | – | 9.62 | – | 4.67 | – | 10.2 | – | > 100 |
| COc1cccc(N2C(=O)C3C4C=C5c6ccccc6N(c6ccccc6)C5(C3C2=O)[C@H]2C(=O)N(c3cccc(OC)c3)C(=O)[C@@H]42)c1 (stereo partly drawn) | – | > 100 | – | > 100 | – | > 100 | – | > 100 | – | > 100 | – | – | – | > 100 | – | > 100 | – | > 100 | – | > 100 |
| CCC1(CN(C)C)CC/C(=C\c2ccc(OC)c(OC)c2)C1=O (stereo not drawn) | – | > 100 | – | > 100 | – | > 100 | – | > 100 | – | > 100 | – | – | – | > 100 | – | > 100 | – | > 100 | – | > 100 |
| COc1ccc(C(=O)c2sc3nc(-c4cccs4)ccc3c2N)cc1OC | 4.14 | > 100 | 6.47 | > 100 | 4.71 | > 100 | 19.8 | > 100 | 5.32 | > 100 | 1.43 | 4.76 | 2.1 | > 100 | – | – | 17.6 | > 100 | 2 | > 100 |
| COc1c(N2CCN(CN3C(=O)C(=O)c4cc(Cl)ccc43)C(C)C2)c(F)cc2c(=O)c(C(=O)O)cn(C3CC3)c12 (stereo not drawn) | 7.29 | > 100 | 20.6 | 65.3 | 49.4 | > 100 | 85.9 | > 100 | > 100 | > 100 | 17.2 | 36.3 | 14 | > 100 | – | – | – | – | 11.9 | 80.9 |
| COCCOCCOCCOc1cccc2c1C(=O)c1cccc(OCCOCCOCCOC)c1C2=O | – | > 100 | – | > 100 | – | > 100 | – | – | – | > 100 | – | – | – | > 100 | – | – | – | > 100 | – | > 100 |
| CC(=O)c1ccc(NC(=O)C(=O)C(C#N)CC(C)(C)C=O)cc1 (stereo not drawn) | – | > 100 | – | > 100 | – | > 100 | – | > 100 | – | > 100 | – | – | – | > 100 | – | > 100 | – | > 100 | – | > 100 |
| O=C1CC/C(=C/COc2cc(=O)oc3ccccc23)O1 | – | – | 12.2 | 25.1 | 16.4 | 30.8 | 3.68 | 22.2 | 6.01 | 21.1 | 7.11 | 22.1 | 19.3 | 95.2 | 2.87 | 17.9 | 14.3 | 31.1 | 12.6 | 35.4 |
| CCOc1ccc2c(c1)c(CC(=O)O)cn2C | – | > 100 | – | > 100 | – | > 100 | – | – | – | > 100 | – | > 100 | – | > 100 | – | > 100 | – | > 100 | – | – |
| C=C(C(=C)P(=S)(C(C)C)C(C)C)P(=S)(C(C)C)C(C)C | – | > 100 | – | > 100 | – | > 100 | – | > 100 | – | > 100 | – | – | – | > 100 | – | > 100 | – | > 100 | – | > 100 |
| CC(=O)Nc1n[n+]([O-])c2cc(C)ccc2[n+]1[O-] | – | – | – | 6.04 | – | 12.3 | – | 33.5 | – | 5.36 | – | 20.8 | – | > 49.3 | – | 18.5 | – | 11.4 | – | 19.4 |
| Cc1ccc(-n2nnnc2-c2cnc(N3CCOCC3)nc2-c2cccc(C(F)(F)F)c2)cc1 | 2.34 | 17.5 | 1.73 | 25.2 | 2.26 | > 50 | 2.6 | > 43.1 | 1.16 | 2.72 | – | – | 1.96 | > 22.6 | – | – | 1.44 | 4.9 | 2.71 | 17.1 |
| CCCCCCCCCCCc1c(O)c(=O)c2c(oc3c(=O)c(CCCCCCCCCCC)c(O)c(=O)c3n2-c2ccc(N(C)C)cc2)c1=O | – | 90.4 | – | 34.3 | – | 52.4 | – | 50.9 | – | 39.7 | – | – | – | > 100 | – | 37.9 | – | 45.9 | – | 36.9 |
| COc1ccc(C(=O)C#Cc2c[nH]c(=O)[nH]c2=O)cc1 | – | 23.3 | – | 32.8 | – | > 59.6 | – | 31 | – | 19.3 | – | – | – | 37.3 | – | 18.7 | – | 47.7 | – | 49.9 |
| O=c1c2cc3c(cc2c2cccc4c2n1CCC4)OCO3 | – | > 100 | – | > 100 | – | > 100 | – | > 100 | – | > 100 | – | – | – | > 100 | – | > 100 | – | > 100 | – | – |
